From patent publication US8633164B2, “Antimicrobial peptides” (priority 2008, dated 2014) come the findings set out here.

≈ marks a conversion by molar mass, not a printed value. Residues, ends and D or L forms follow the SMILES beside them.

The subject of assay [1] is Acinetobacter baumanii ATCC 19606. It counts as cell-based. As to the method: (§1) The antibacterial activity of the peptides was determined by microdilution susceptibility assays performed in Mueller-Hinton broth. Susceptibility testing was performed following the recommendations of the Clinical Standards Institute (CLSI, formerly NCCLS) [Standards, 2000]. Peptides (2 mg/ml in 4 mM HEPES, pH 7.2) were two-fold diluted in Mueller-Hinton Broth in 96-well microtitre plates to obtain concentrations from 512 to 0.25 μg/ml in a volume of 100 μl. Bacteria were grown on Mueller-Hinton agar plates for 1 to 3 days depending on the growth rate of the bacteria, suspended in 2 ml of 0.9% saline and adjusted to 10^8 CFU/ml. The bacterial suspension was diluted 100-fold in Mueller-Hinton broth, and 0.1 ml of this new dilution (10^5 CFU) was added to the peptide dilutions. The microtiter plates were incubated at 37° C. for 24 h. The minimal inhibitory concentration (MIC) of each peptide against a given bacterial strain was regarded as the minimal concentration of the peptide which prevents the growth of that organism 24 h after inoculation. The bactericidal effect of the peptides was determined, after 24 h incubation at 37° C., by plating 10 μl of the content of non-cloudy wells onto Mueller-Hinton agar plates. Plates were incubated at 37° C. for 1 to 5 days, and a viable count was performed. The minimal bactericidal concentration (MBC) of each peptide for a given bacterial strain was regarded as the minimal concentration of the peptide which kills 99.9% of the colony-forming units (CFU) present in the final inoculum.

In assay [2] the test system is Escherichia coli ATCC 25922. The class given is cell-based. The procedure:
as §1

The subject of assay [3] is Staphylococcus aureus ATCC 25923. The class given is cell-based. As to the method:
as §1

The test system of assay [4] is Stenotrophomonas Maltophilia 3998-00 CUN. The class given is cell-based. The procedure: as §1
The subject of the next assay is MRSA ATCC 43300. It counts as cell-based, methicillin-resistant Staphylococcus aureus. As to the method: as §1
The subject of another assay is MRSA CUN 3792-99. The class given is cell-based, methicillin-resistant Staphylococcus aureus. The procedure:
as §1

A further assay relates to HIV-1 isolate. Briefly: Anti-HIV action: inhibition of virus replication in T-cell line PM1. Particulars: 20 μg/ml peptide. It counts as cell-based. As to the method:
A T-cell line (PM1) was incubated with a HIV-1 isolate and the infected cells were cultivated in peptide-containing medium. After some days the number of viruses was determined as compared to untreated cells. The number of viruses is determined by the concentrations of the HIV-capsid in the supernatant. FIG. 8 depicts the anti-HIV action of the peptides Pep19-2, -4, 6, and 8 at peptide concentrations of 1, 5, 10, and 20 μg/ml.

For another assay, the system named is LPS. Briefly: Animal model of endotoxicity (LPS/galactosamine endotoxic shock, mortality). It counts as in vivo, mice. Particulars: mouse, LPS + galactosamine i.p., 150 μg peptide i.p. The text has this:
The wild-type LPS of E. coli ATCC 35218 and P. aeruginosa PAO1 were obtained from the aqueous phase of a water-phenol extract and purified by treatment with chaotropic agents and detergents.
Female ICR (CD-1) mice weighing 20-23 g were randomly distributed in experimental groups (n=16). Endotoxic shock was induced in the animals by coinoculation of LPS and galactosamine following the method of Galanos et al. Specifically, each animal received an intraperitoneal injection containing a mixture of 0.3 μg of LPS and 18 mg of galactosamine resuspended in 200 μl of endotoxin-free saline.
Immediately after LPS administration, animals were intraperitoneally inoculated with 150 μg of the test peptide resuspended in 150 μl of pyrogen-free saline containing 10% dimethylformamide as solubilizing agent. To facilitate the therapeutical action of the peptide, mice so treated were gently massaged at the site of inoculation for a few seconds. Animal mortality was monitored at 6 h and 12 h postinoculation and at daily intervals for 5 days.
In each independent experiment a group of animals received 150 μl of pyrogen-free saline containing 150 μg of polymyxin B, a lipopeptide with well known antiendotoxic properties, whereas another group was left untreated.
Results of animal mortality at all experimental time points were globally analyzed using the Kaplan-Meier survival analysis. When the survival plots were parallel, data were compared by the Log-Rank test, whereas for those plots that intersected the “Breslow-Gehan-Wilcoxon”. […]

The MIC is the lowest concentration found to suppress growth. A word on the MBC: it is the smallest concentration meeting the test's criterion for killing. As for `CC(C)C[C@H](NC(=O)[C@H](Cc1c[nH]c2ccccc12)NC(=O)[C@H](CC(C)C)NC(=O)[C@H](CCCCN)NC(=O)[C@H](CCC(N)=O)NC(=O)[C@H](CCCCN)NC(=O)[C@H](CS)NC(=O)[C@H](CCCCN)NC(=O)[C@H](CC(C)C)NC(=O)[C@H](CCCCN)NC(=O)[C@H](Cc1ccccc1)NC(=O)[C@H](CCCNC(=N)N)NC(=O)[C@H](CCCNC(=N)N)NC(=O)[C@H](Cc1ccccc1)NC(=O)[C@H](CCCCN)NC(=O)[C@H](CCCCN)NC(=O)[C@H](CS)NC(=O)CN)C(=O)N[C@@H](Cc1c[nH]c2ccccc12)C(=O)N[C@@H](CS)C(=O)NCC(N)=O` [Pep 19-6] (H-GCKKFRRFKLKCKQKLWLWCG-NH2), the MIC is 64 µg/mL (≈ 24.1 µM) in assay [1]; more than 500 µg/mL in assay [2]; more than 500 µg/mL in assay [3]; 1024 µg/mL (≈ 385 µM) in assay [4]; 64 µg/mL (≈ 24.1 µM) against MRSA ATCC 43300; 32 µg/mL (≈ 12 µM) against MRSA CUN 3792-99. In addition, the MBC in assay [2] and in assay [3] was more than 500 µg/mL each time.
For the compound `N=C(N)NCCC[C@H](NC(=O)CNC(=O)[C@H](CCCNC(=N)N)NC(=O)[C@H](Cc1ccccc1)NC(=O)[C@H](CCCCN)NC(=O)[C@H](Cc1c[nH]c2ccccc12)NC(=O)[C@H](CCCNC(=N)N)NC(=O)[C@H](Cc1ccccc1)NC(=O)[C@H](CCCNC(=N)N)NC(=O)[C@H](CCCNC(=N)N)NC(=O)[C@H](Cc1ccc(O)cc1)NC(=O)[C@H](CCCCN)NC(=O)[C@H](CCCCN)NC(=O)CN)C(=O)N[C@@H](Cc1ccccc1)C(=O)N[C@@H](Cc1c[nH]c2ccccc12)C(=O)N[C@@H](Cc1ccccc1)C(=O)N[C@@H](Cc1c[nH]c2ccccc12)C(=O)NCC(N)=O` [Pep 19-5, GKKYRRFRWKFRGRFWFWG] (H-GKKYRRFRWKFRGRFWFWG-NH2), the MIC in assay [1] came to 16 µg/mL (≈ 6.01 µM); in assay [2] it was 15.6 µg/mL (≈ 5.86 µM); in assay [3] it was 15.6 µg/mL (≈ 5.86 µM); in assay [4], 64 µg/mL (≈ 24 µM); in the assay with MRSA ATCC 43300, 16 µg/mL (≈ 6.01 µM); in the assay on MRSA CUN 3792-99 it was 16 µg/mL (≈ 6.01 µM). In assay [2], the MBC was determined as 15.6 µg/mL (≈ 5.86 µM). Also, in the assay with HIV-1 isolate, the “% inhibition of virus replication in a T-cell line” value is reported as 99%.
Consider “KKYRRFRWKFKGKFWFW (Synthetic antimicrobial peptide 1Pep17-2) [Pep 17-2]”, for which, in the assay with LPS, the “Dead mice/number of mice, 24 h” value is recorded as 7/10; the “Dead mice/number of mice, 48 h” value is reported as 7/10; the “Dead mice/number of mice, 72 h” value is given as 8/11.
For `N=C(N)NCCC[C@H](NC(=O)[C@H](Cc1ccc(O)cc1)NC(=O)[C@H](CCCCN)NC(=O)[C@H](CCCCN)NC(=O)CN)C(=O)N[C@@H](CCCNC(=N)N)C(=O)N[C@@H](Cc1ccccc1)C(=O)N[C@@H](CCCNC(=N)N)C(=O)N[C@@H](Cc1c[nH]c2ccccc12)C(=O)N[C@@H](CCCCN)C(=O)N[C@@H](Cc1ccccc1)C(=O)N[C@@H](CCCCN)C(=O)NCC(=O)N[C@@H](CCCCN)C(=O)N[C@@H](Cc1c[nH]c2ccccc12)C(=O)N[C@@H](Cc1ccccc1)C(=O)N[C@@H](Cc1c[nH]c2ccccc12)C(=O)N[C@@H](Cc1ccccc1)C(=O)NCC(N)=O` [Pep 19-4, GKKYRRFRWKFKGKWFWFG] (H-GKKYRRFRWKFKGKWFWFG-NH2), the MIC in assay [1] was determined as 16 µg/mL (≈ 6.13 µM); in assay [3] it was 15.6 µg/mL (≈ 5.98 µM); in assay [4] it was 32 µg/mL (≈ 12.3 µM); against MRSA ATCC 43300, 16 µg/mL (≈ 6.13 µM); against MRSA CUN 3792-99, 16 µg/mL (≈ 6.13 µM). Also, the MBC in assay [2] turned out to be 15.6 µg/mL (≈ 5.98 µM).
As to `N=C(N)NCCC[C@H](NC(=O)[C@H](Cc1ccc(O)cc1)NC(=O)[C@H](CCCCN)NC(=O)[C@H](CCCCN)NC(=O)[C@H](CS)NC(=O)CN)C(=O)N[C@@H](CCCNC(=N)N)C(=O)N[C@@H](Cc1ccccc1)C(=O)N[C@@H](CCCNC(=N)N)C(=O)N[C@@H](Cc1c[nH]c2ccccc12)C(=O)N[C@@H](CCCCN)C(=O)N[C@@H](Cc1ccccc1)C(=O)N[C@@H](CCCCN)C(=O)NCC(=O)N[C@@H](CCCCN)C(=O)N[C@@H](Cc1ccccc1)C(=O)N[C@@H](Cc1c[nH]c2ccccc12)C(=O)N[C@@H](Cc1ccccc1)C(=O)N[C@@H](Cc1c[nH]c2ccccc12)C(=O)N[C@@H](CS)C(=O)NCC(N)=O` [Pep 19-2] (H-GCKKYRRFRWKFKGKFWFWCG-NH2), in the assay with LPS, the “Dead mice/number of mice, 24 h” value is on record as 0/10. For the same compound, the “Dead mice/number of mice, 48 h” value in the assay on LPS is 0/10. Besides, the “Dead mice/number of mice, 72 h” value in the assay with LPS is reported as 0/10. Further, the MIC was determined as 64 µg/mL (≈ 22.7 µM) in assay [1]; 128 µg/mL (≈ 45.5 µM) in assay [2]; 128 µg/mL (≈ 45.5 µM) in assay [3]; 512 µg/mL (≈ 182 µM) in assay [4]; 128 µg/mL (≈ 45.5 µM) in the assay on MRSA ATCC 43300; 1024 µg/mL (≈ 364 µM) against MRSA CUN 3792-99. The MBC in assay [2] and in assay [3] was 512 µg/mL (≈ 182 µM) throughout.
For the compound polymyxin B [PMB, reference compound], in the assay with LPS, the “Dead mice/number of mice, 24 h” value is 0/10; the “Dead mice/number of mice, 48 h” value is listed as 0/10; the “Dead mice/number of mice, 72 h” value was 0/10.
In the case of “KKFRRLKWKYKGKFWFW (Synthetic antimicrobial peptide 1Pep17-1) [Pep 17-1]”, in the assay with LPS, the “Dead mice/number of mice, 24 h” value is listed as 7/11; the “Dead mice/number of mice, 48 h” value was 7/11; the “Dead mice/number of mice, 72 h” value is listed as 8/11.
`N=C(N)NCCC[C@H](NC(=O)[C@H](Cc1ccc(O)cc1)NC(=O)[C@H](CCCCN)NC(=O)[C@H](CCCCN)NC(=O)CN)C(=O)N[C@@H](CCCNC(=N)N)C(=O)N[C@@H](Cc1ccccc1)C(=O)N[C@@H](Cc1c[nH]c2ccccc12)C(=O)N[C@@H](CCCCN)C(=O)N[C@@H](Cc1ccccc1)C(=O)N[C@@H](CCCCN)C(=O)NCC(=O)N[C@@H](CCCCN)C(=O)N[C@@H](Cc1c[nH]c2ccccc12)C(=O)N[C@@H](Cc1ccccc1)C(=O)N[C@@H](Cc1ccccc1)C(=O)N[C@@H](Cc1c[nH]c2ccccc12)C(=O)NCC(N)=O` [Pep 19-7, GKKYRRFWKFKGKWFFWG] (H-GKKYRRFWKFKGKWFFWG-NH2): the MIC in assay [1] is 16 µg/mL (≈ 6.53 µM); in assay [2], more than 500 µg/mL; in assay [3] it was more than 500 µg/mL; in assay [4] it was 645 µg/mL (≈ 263 µM); in the assay on MRSA ATCC 43300 it was 16 µg/mL (≈ 6.53 µM); in the assay on MRSA CUN 3792-99, 16 µg/mL (≈ 6.53 µM). The MBC in assay [2] and in assay [3] was more than 500 µg/mL throughout.
As to `N=C(N)NCCC[C@H](NC(=O)CNC(=O)[C@H](CCCCN)NC(=O)[C@H](Cc1ccccc1)NC(=O)[C@H](CCCCN)NC(=O)[C@H](Cc1c[nH]c2ccccc12)NC(=O)[C@H](CCCNC(=N)N)NC(=O)[C@H](Cc1ccccc1)NC(=O)[C@H](CCCCN)NC(=O)[C@H](CCCCN)NC(=O)[C@H](Cc1ccc(O)cc1)NC(=O)[C@H](CCCNC(=N)N)NC(=O)[C@H](CCCNC(=N)N)NC(=O)CN)C(=O)N[C@@H](Cc1c[nH]c2ccccc12)C(=O)N[C@@H](Cc1ccccc1)C(=O)N[C@@H](Cc1c[nH]c2ccccc12)C(=O)N[C@@H](Cc1ccccc1)C(=O)NCC(N)=O` [Pep 19-8, GRRYKKFRWKFKGRWFWFG] (H-GRRYKKFRWKFKGRWFWFG-NH2), the MIC in assay [1] amounted to 16 µg/mL (≈ 6.07 µM); in assay [4], 32 µg/mL (≈ 12.1 µM); in the assay on MRSA ATCC 43300, 8 µg/mL (≈ 3.03 µM); against MRSA CUN 3792-99, 8 µg/mL (≈ 3.03 µM). The “% inhibition of virus replication in a T-cell line” value with HIV-1 isolate is given as 99%.
